Data as given in ChEMBL document CHEMBL4507325 (2021).

Columns and labels:
[1] = biological target: Aspartate aminotransferase, cytoplasmic (Homo sapiens, UniProt P17174); assay: Aspartate transaminase assay (GOT1)
[2] = biological target: Aspartate aminotransferase, mitochondrial (Homo sapiens, UniProt P00505); assay: Aspartate transaminase assay (GOT2)
[3] = biological target: 5-hydroxytryptamine receptor 1E (Homo sapiens) (UniProt P28566); details: Compound concentration 10.0 uM
[4] = biological target: D(1A) dopamine receptor (Homo sapiens) (UniProt P21728); details: Compound concentration 10.0 uM
[5] = biological target: D(3) dopamine receptor (Homo sapiens) (UniProt P35462); details: Compound concentration 10.0 uM
[6] = biological target: D(4) dopamine receptor (Homo sapiens) (UniProt P21917); details: Compound concentration 10.0 uM
[7] = biological target: Sodium-dependent noradrenaline transporter (Homo sapiens) (UniProt P23975); details: Compound concentration 10.0 uM
Chain of Sodium-dependent noradrenaline transporter (Homo sapiens) (P23975 whole entry): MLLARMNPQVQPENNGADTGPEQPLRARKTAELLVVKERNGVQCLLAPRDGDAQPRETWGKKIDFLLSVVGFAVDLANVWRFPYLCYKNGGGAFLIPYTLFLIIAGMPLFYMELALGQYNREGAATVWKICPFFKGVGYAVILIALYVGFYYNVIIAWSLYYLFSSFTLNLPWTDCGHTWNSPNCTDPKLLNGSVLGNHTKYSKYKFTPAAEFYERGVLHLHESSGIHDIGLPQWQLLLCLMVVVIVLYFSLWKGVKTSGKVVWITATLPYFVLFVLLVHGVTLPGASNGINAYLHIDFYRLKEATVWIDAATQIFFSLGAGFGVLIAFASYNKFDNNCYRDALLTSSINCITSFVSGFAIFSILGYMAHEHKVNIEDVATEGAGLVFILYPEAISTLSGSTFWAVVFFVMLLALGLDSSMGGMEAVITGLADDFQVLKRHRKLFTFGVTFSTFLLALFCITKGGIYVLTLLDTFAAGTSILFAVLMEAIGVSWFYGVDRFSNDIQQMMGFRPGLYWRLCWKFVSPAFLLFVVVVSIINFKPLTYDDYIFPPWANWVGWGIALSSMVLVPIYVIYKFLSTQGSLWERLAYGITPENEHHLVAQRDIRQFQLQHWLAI

[8] = biological target: Delta-type opioid receptor (Homo sapiens) (UniProt P41143); details: Compound concentration 10.0 uM
[9] = biological target: Histamine H2 receptor (Homo sapiens) (UniProt P25021); details: Compound concentration 10.0 uM
[10] = biological target: Alpha-1A adrenergic receptor (Homo sapiens) (UniProt P35348); details: Compound concentration 10.0 uM
Chain of Alpha-1A adrenergic receptor (Homo sapiens) (P35348 whole entry): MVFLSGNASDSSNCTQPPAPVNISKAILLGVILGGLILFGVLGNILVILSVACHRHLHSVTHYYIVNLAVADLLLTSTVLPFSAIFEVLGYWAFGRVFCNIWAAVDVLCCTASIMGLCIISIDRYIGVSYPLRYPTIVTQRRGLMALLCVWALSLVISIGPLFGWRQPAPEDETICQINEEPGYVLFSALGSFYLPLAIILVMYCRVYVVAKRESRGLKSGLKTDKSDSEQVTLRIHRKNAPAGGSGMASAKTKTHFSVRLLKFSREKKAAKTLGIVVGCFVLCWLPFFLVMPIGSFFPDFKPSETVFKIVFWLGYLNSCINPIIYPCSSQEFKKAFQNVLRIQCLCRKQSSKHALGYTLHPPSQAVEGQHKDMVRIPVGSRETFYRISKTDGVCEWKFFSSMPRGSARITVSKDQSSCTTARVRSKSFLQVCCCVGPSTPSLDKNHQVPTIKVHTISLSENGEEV

[11] = biological target: Alpha-2C adrenergic receptor (Homo sapiens) (UniProt P18825); details: Compound concentration 10.0 uM
Chain of Alpha-2C adrenergic receptor (Homo sapiens) (P18825 whole entry): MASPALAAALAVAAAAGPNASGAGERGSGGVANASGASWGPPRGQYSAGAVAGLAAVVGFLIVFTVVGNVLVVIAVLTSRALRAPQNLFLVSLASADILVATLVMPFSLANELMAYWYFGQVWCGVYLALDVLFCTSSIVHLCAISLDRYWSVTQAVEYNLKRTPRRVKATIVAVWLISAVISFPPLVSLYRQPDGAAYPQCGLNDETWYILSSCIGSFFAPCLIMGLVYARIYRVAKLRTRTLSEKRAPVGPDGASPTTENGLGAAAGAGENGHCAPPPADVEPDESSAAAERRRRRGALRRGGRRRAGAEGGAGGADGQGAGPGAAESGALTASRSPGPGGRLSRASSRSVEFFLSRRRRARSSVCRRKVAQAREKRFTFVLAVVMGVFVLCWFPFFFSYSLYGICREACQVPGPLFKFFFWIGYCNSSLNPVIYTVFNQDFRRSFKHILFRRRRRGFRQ

[12] = biological target: Muscarinic acetylcholine receptor M2 (Homo sapiens) (UniProt P08172); details: Compound concentration 10.0 uM
[13] = biological target: Muscarinic acetylcholine receptor M4 (Homo sapiens) (UniProt P08173); details: Compound concentration 10.0 uM
Chain of Muscarinic acetylcholine receptor M4 (Homo sapiens) (P08173 whole entry): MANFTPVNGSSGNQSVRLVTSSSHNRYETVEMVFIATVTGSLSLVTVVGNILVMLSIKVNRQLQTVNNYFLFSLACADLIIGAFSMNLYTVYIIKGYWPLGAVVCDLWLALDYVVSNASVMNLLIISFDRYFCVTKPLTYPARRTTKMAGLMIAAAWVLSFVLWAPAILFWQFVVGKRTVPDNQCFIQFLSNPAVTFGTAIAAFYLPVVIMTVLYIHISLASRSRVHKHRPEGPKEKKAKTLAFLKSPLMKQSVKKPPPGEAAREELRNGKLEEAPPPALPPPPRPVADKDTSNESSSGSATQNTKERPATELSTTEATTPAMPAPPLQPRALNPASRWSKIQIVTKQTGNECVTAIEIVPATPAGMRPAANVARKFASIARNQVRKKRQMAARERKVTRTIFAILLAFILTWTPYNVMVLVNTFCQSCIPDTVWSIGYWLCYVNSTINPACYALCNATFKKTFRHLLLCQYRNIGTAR

[14] = biological target: Muscarinic acetylcholine receptor M5 (Homo sapiens) (UniProt P08912); details: Compound concentration 10.0 uM
Chain of Muscarinic acetylcholine receptor M5 (Homo sapiens) (P08912 whole entry): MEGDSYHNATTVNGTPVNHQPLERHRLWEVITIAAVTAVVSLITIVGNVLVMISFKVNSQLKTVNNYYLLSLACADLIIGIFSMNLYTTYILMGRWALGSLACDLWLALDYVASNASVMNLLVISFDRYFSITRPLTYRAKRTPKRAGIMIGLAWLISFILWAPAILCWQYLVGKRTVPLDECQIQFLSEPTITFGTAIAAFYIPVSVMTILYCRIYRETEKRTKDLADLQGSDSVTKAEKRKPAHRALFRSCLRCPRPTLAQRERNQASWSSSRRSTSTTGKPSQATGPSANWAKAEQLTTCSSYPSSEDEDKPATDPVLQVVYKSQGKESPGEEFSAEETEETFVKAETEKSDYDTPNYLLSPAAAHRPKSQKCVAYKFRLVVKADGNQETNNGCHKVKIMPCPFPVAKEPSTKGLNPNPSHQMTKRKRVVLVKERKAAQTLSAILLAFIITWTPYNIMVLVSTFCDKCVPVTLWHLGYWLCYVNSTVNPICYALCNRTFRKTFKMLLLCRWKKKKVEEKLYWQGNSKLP

[15] = biological target: Beta-3 adrenergic receptor (Homo sapiens) (UniProt P13945); details: Compound concentration 10.0 uM
[16] = biological target: T1, GABA-A receptor; anion channel (Rattus norvegicus) (UniProt O09028+P15431+P18506+P18508+P19969+P20236+P23574+P23576+P28471+P28473+P30191+P62813+P63079+P63138+Q91ZM7+Q9ES14); details: Compound concentration 10.0 uM
Rattus norvegicus = organism: Rattus norvegicus; details: Compound concentration 10.0 uM
[17] = biological target: Alpha-1D adrenergic receptor (Homo sapiens) (UniProt P25100); details: Compound concentration 10.0 uM
[18] = biological target: Sigma intracellular receptor 2 (Homo sapiens) (UniProt Q5BJF2); details: Compound concentration 10.0 uM
Chain of Sigma intracellular receptor 2 (Homo sapiens) (Q5BJF2 whole entry): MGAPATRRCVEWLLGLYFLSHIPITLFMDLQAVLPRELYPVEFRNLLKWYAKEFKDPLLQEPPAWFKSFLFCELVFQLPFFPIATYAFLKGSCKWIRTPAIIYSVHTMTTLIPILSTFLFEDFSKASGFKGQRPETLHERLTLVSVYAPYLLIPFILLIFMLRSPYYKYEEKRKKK

[19] = biological target: Sigma non-opioid intracellular receptor 1 (Homo sapiens) (UniProt Q99720); details: Compound concentration 10.0 uM
[20] = biological target: Adenosine receptor A2a (Homo sapiens) (UniProt P29274); details: Compound concentration 10.0 uM
[21] = biological target: Adenosine receptor A3 (Homo sapiens) (UniProt P0DMS8); details: Compound concentration 10.0 uM
[22] = biological target: Alpha-1A adrenergic receptor (Homo sapiens) (UniProt P35348); details: Rattus norvegicus; Compound concentration 10.0 uM
[23] = biological target: Beta-1 adrenergic receptor (Homo sapiens) (UniProt P08588); details: Compound concentration 10.0 uM
Chain of Beta-1 adrenergic receptor (Homo sapiens) (P08588 whole entry, looked up): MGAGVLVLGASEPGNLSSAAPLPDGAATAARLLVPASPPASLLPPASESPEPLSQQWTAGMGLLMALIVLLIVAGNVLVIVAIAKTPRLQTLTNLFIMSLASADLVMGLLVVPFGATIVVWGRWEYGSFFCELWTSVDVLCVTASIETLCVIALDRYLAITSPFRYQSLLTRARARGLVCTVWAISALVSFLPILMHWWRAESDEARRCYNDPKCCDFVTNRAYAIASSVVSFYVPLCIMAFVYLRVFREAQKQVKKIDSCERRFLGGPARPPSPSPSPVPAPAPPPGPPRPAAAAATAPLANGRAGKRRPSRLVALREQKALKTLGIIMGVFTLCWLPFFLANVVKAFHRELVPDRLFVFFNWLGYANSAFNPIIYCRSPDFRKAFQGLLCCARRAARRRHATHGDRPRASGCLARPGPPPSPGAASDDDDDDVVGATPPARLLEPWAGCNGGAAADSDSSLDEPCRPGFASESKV

[24] = biological target: Endothelin-1 receptor (Homo sapiens) (UniProt P25101); details: Compound concentration 10.0 uM
Chain of Endothelin-1 receptor (Homo sapiens) (P25101 whole entry): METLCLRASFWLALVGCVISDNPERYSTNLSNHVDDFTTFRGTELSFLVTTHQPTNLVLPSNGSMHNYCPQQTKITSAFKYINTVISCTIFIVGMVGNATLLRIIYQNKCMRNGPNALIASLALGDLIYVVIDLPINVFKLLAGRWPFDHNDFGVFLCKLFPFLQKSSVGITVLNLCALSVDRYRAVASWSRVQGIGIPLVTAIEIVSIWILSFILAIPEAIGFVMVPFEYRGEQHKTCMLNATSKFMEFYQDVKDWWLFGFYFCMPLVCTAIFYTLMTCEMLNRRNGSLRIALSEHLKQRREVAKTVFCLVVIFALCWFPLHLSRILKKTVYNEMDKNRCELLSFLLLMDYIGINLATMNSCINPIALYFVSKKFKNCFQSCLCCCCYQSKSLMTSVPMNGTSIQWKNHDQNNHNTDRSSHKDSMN

[25] = biological target: T2, Glutamate NMDA receptor (Rattus norvegicus) (UniProt P35439+Q00959+Q00960+Q00961+Q62645+Q8VHN2+Q9R1M7); details: Compound concentration 10.0 uM
[26] = biological target: T2, Glutamate NMDA receptor (Rattus norvegicus); details: Compound concentration 10.0 uM; remark: listed apart in the source
[27] = biological target: Kappa-type opioid receptor (Homo sapiens) (UniProt P41145); details: Compound concentration 10.0 uM
[28] = biological target: Purinergic P2Y (Rattus norvegicus) (UniProt O35811+Q9EPX4+P49651+Q63371+P41232+O35881+Q6GUG4); details: Compound concentration 10.0 uM
[29] = biological target: 5-hydroxytryptamine receptor 1A (Homo sapiens) (UniProt P08908); details: Compound concentration 10.0 uM
Chain of 5-hydroxytryptamine receptor 1A (Homo sapiens) (P08908 whole entry): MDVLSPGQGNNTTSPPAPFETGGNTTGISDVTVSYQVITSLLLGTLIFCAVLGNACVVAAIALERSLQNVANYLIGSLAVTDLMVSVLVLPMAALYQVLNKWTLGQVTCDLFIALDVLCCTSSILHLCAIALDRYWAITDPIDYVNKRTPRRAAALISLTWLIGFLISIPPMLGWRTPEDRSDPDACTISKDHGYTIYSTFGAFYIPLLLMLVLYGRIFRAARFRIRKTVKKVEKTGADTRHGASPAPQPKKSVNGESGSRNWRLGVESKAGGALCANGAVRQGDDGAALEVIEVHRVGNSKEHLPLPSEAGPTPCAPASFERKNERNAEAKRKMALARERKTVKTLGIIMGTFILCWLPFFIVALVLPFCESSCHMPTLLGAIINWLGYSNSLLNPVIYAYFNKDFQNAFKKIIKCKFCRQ

[30] = biological target: Sodium-dependent dopamine transporter (Homo sapiens) (UniProt Q01959); details: Compound concentration 10.0 uM
[31] = biological target: Sodium-dependent serotonin transporter (Homo sapiens) (UniProt P31645); details: Compound concentration 10.0 uM
[32] = biological target: Type-2 angiotensin II receptor (Homo sapiens) (UniProt P50052); details: Compound concentration 10.0 uM
[33] = biological target: T1, GABA-A receptor; anion channel (Rattus norvegicus); details: Compound concentration 10.0 uM; remark: listed apart in the source
[34] = biological target: Insulin receptor (Homo sapiens) (UniProt P06213); details: Rattus norvegicus; Compound concentration 10.0 uM
[35] = biological target: Muscarinic acetylcholine receptor M4 (Homo sapiens) (UniProt P08173); details: Compound concentration 10.0 uM; remark: listed apart in the source
[36] = biological target: 5-hydroxytryptamine receptor 2C (Homo sapiens) (UniProt P28335); details: Compound concentration 10.0 uM
[37] = biological target: Vasopressin V1a receptor (Homo sapiens) (UniProt P37288); details: Compound concentration 10.0 uM
[38] = biological target: Androgen receptor (Homo sapiens) (UniProt P10275); details: Compound concentration 10.0 uM
[39] = biological target: Glutamate receptor ionotropic, kainate (Rattus norvegicus) (UniProt P22756+Q01812+P42260+P42264+Q63273); details: Compound concentration 10.0 uM
Homo sapiens = organism: Homo sapiens; details: Compound concentration 10.0 uM
[40] = biological target: Growth hormone secretagogue receptor type 1 (Homo sapiens) (UniProt Q92847); details: Compound concentration 10.0 uM
[41] = biological target: Progesterone receptor (Homo sapiens) (UniProt P06401); details: Compound concentration 10.0 uM

Chain of 5-hydroxytryptamine receptor 1E (Homo sapiens) (P28566 whole entry): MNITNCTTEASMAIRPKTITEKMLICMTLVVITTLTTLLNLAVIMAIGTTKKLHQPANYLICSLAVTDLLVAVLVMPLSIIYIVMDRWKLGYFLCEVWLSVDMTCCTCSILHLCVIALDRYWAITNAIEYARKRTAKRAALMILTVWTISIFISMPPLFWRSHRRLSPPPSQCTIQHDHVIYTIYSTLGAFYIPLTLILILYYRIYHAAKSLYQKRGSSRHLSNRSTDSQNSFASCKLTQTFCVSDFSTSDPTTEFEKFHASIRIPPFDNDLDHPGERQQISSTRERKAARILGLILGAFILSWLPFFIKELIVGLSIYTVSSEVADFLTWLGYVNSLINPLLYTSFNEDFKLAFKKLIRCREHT
Chain of Aspartate aminotransferase, mitochondrial (P00505 whole entry): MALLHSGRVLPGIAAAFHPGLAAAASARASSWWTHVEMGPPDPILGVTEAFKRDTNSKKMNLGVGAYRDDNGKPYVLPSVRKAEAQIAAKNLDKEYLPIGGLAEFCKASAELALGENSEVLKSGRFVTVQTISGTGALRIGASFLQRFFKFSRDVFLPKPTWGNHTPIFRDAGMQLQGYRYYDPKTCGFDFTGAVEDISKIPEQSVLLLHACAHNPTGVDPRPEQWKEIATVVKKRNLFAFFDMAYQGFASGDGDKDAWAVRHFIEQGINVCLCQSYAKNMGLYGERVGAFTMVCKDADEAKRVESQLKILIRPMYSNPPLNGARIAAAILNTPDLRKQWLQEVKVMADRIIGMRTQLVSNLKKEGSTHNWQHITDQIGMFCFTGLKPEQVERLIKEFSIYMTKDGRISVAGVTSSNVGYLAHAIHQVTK

IC50 [1]: > 50 µM (not active)
IC50 [2]: > 50 µM (not active)
inhibition [3]: 4.31%
inhibition [4]: -0.83%
inhibition [5]: 8.85%
inhibition [6]: 9.05%
inhibition [7]: -1.01%
inhibition [8]: 14.5%
inhibition [9]: 5.46%
inhibition [10]: -2.81%
inhibition [11]: 10.8%
inhibition [12]: 39.2%
inhibition [13]: -8.67%
inhibition [14]: -5.66%
inhibition [15]: 22.9%
inhibition [16]: 16.3%
inhibition (Rattus norvegicus): 63.9%
inhibition [17]: -5.48%
inhibition [18]: -7.5%
inhibition [19]: 19%
inhibition [20]: -6%
inhibition [21]: -2%
inhibition [22]: 5%
inhibition [23]: 3%
inhibition [24]: -2%
inhibition [25]: 11%
inhibition [26]: -2%
inhibition [27]: -7%
inhibition [28]: -4%
inhibition [29]: 9%
inhibition [30]: 33%
inhibition [31]: 3%
inhibition [32]: 6%
inhibition [33]: 15%
inhibition [34]: 15%
inhibition [35]: -5%
inhibition [36]: 3%
inhibition [37]: 7%
inhibition [38]: 9%
inhibition [39]: -4%
inhibition (Homo sapiens): -8%
inhibition [40]: 1%
inhibition [41]: -4%
SMILES: Cc1ccccc1Oc1cc(-n2c(=O)cc(C(F)(F)F)[nH]c2=O)c2ccccc2c1Cl [BAY-069]
